Laboratory results published in PMC2901175 (ACS medicinal chemistry letters, 2010).
≈ marks a conversion by molar mass, not a printed value.

Legend:
IMP-1 = settings: cited from earlier work
VIM-2 = settings: against VIM-2; cited from earlier work
[1] = system: VIM-2 expressing bacteria; settings: cited from earlier work
BL21/VIM-2 E. coli = assay: Imipenem MIC potentiation in VIM-2 transformed E. coli; format: cell-based
parental (BL21) E. coli = assay: Imipenem MIC in parental E. coli; format: cell-based; settings: Escherichia coli, read-out: imipenem MIC

SMILES | activity towards IMP-1 (in words) (IMP-1) | Ki (VIM-2) [nM] | potentiation of ß-lactam antibacterial effects (in words) [1] | fold increase of imipenem MIC, BL21/VIM-2 relative to parental BL21 (BL21/VIM-2 E. coli) | MIC (BL21/VIM-2 E. coli; Escherichia coli, read-out: imipenem MIC) [µg/mL] | MIC (parental (BL21) E. coli) [µg/mL]
C#CCCOCc1nn[nH]c1CNS(=O)(=O)c1ccc(I)cc1 [Compound 1, N-((4-((but-3-ynyloxy)methyl)-1H-1,2,3-triazol-5-yl)methyl)-4-iodo-benzenesulfonamide] | inactive | 410 ± 30 | did not potentiate |  |  | 
C[C@@H](O)[C@H]1C(=O)N2C(C(=O)O)=C(SCCN=CN)C[C@H]12 [imipenem] |  |  |  | approximately 9 fold | 1.85 | 0.21 (≈ 0.702 µM)
O=C(O)c1cc[c]([Hg][Cl])cc1 [pCMB, p-chloromercuribenzoic acid] |  |  | synergistic effect |  |  | 
